{"source": "patent US8729122B2", "about": "“Pharmaceutical and nutraceutical compositions of abscisic acid” (Valent BioSciences Corporation, priority 2010, dated 2014)", "key": {"rats [1]": {"system": "rats", "assay": "90-Day Oral Toxicity Study in Rodents (dietary S-ABA)", "format": "in vivo", "settings": "for PROSTATE WEIGHT, mean: 90 days", "protocol": "Tests were conducted with (S)-(+)-abscisic acid in accordance with standard guidelines and procedures as evidenced by EPA Subchronic Toxicity Test Guidelines: 870.3050—Repeated Dose 28-Day Oral Toxicity Study in Rodents (July 2000); 870.3100—90-Day Oral Toxicity in Rodents (August 1998); 870.3650—Combined Repeated Dose Toxicity Study with the Reproduction/Developmental Toxicity Screening Test (July 2000); and 870.3200—21/28-Day Dermal Toxicity (August 1998), as well as Organization for Economic Co-operation and Development (OECD) Guidelines for the Testing of Chemicals including: Test No. 407: Repeated Dose 28-day Oral Toxicity Study in Rodents; Test No. 408: Repeated Dose 90-Day Oral Toxicity Study in Rodents; Test No. 416: Two-Generation Reproduction Toxicity; and Test No. 410: Repeated Dose Dermal Toxicity: 21/28-day Study.\n90-Day Oral Toxicity Study in Rodents\nFrom the batch supplied (42 males and 42 females), 40 males and 40 females were assigned to the study. Animals were allocated to 4 dose groups and treated as follows:\nThe animals were dosed by the dietary route 7 days/week for 13 consecutive weeks and up to immediately before terminal kill. Control animals received blank diet only. The concentration was constant throughout the treatment period. Detailed examinations were conducted on all animals during Weeks 4, 8 and 12. Histopathological evaluation of all tissues was undertaken for all animals in the Control and dose groups. Observations and testing results from this study can be seen in Tables 2, 4 and 5 below.\nIn a 90 day toxicity study in rats, glucose and triglyceride levels were measured."}, "[2]": {"assay": "Fetal data at scheduled necropsy", "format": "in vivo, rats", "description": "Observations and testing results from this study can be seen in Tables 1, 3 and 6-13 below.\nFurther supporting data can be seen below in Tables 10 and 11 showing that at necropsy fetus numbers and follicle size increase with the addition of S-ABA."}, "rats [3]": {"system": "rats", "assay": "21-day Dermal Toxicity Study, removal of adhesive bandage", "format": "in vivo", "settings": "for Total No. of Removals (adhesive bandage), individual animals: 3 weeks", "protocol": "Animals were allocated to dose groups and treated as follows:\nAnimals were dosed daily by dermal administration, with an exposure period of 6 hours, 7 days/week for a period of 3 weeks.\nThe lumbar region of the animals was clipped to expose the skin (approximately 6×6 cm) with the test formulation being spread evenly over this area. A dressing of foil gauze and self adhesive bandage was wrapped around the torso to prevent oral ingestion. Following 6 hours of exposure the dressings were removed and the dose area wiped clean with a cloth dampened with distilled water.\nDuring the dosing period it was noted that some animals were able to get the adhesive bandage off during the 6 hour exposure period."}, "rats [4]": {"system": "rats", "assay": "Rat neurotoxicity testing", "format": "in vivo", "settings": "especially female"}, "rats [5]": {"system": "rats", "assay": "Two Generation Reproduction Toxicity Study (dietary S-ABA)", "format": "in vivo", "protocol": "Two Generation Reproduction Toxicity Study\nThis study was conducted to determine the potential adverse effects of the test substance on reproduction in a 2-generation study. This included determining the effects of the test substance on male and female reproductive processes, including gonadal function, estrous cyclicity, mating behavior, conception, gestation, parturition, lactation, weaning, and on growth and development of the offspring. A minimum of 1 litter was produced in each generation.\nThree groups of male and female were offered S-ABA, continuously in the diet for at least 70 consecutive days prior to mating. Target tests substance concentrations were 10,000, 15,000, and 20,000 ppm for the F0 and F1 generations. A concurrent control group of 30 rats/sex was offered the basal diet continuously throughout the study. F0 animals were approximately 7 weeks of age at the initiation of test diet administration. The test diet was administered to the offspring selected to become the F1 generation following weaning. The F0 and F1 males continued to receive the test substance throughout mating and continuing through the day prior to euthanasia. The F0 and F1 females continued to receive the test substance throughout mating, gestation, and lactation, and through the day of euthanasia. For both generations (F1 and F2), 8 pups per litter (4 per sex, when possible) were selected to reduce the variability among the litters. Offspring (30/sex/group, if possible) from the pairing of the F0 animals were selected to constitute the F1 generation.\nAll animals were observed twice daily for appearance and behavior. Clinical observations, body weights, and food consumption were recorded at appropriate intervals for males throughout the study and for females prior to mating and during gestation and lactation. All F0 and F1 females were allowed to deliver and rear their pups until weaning on lactation day 21. Clinical observations, body weights, and sexes for F1 and F2 pups were recorded at appropriate intervals. Nonselected F1 pups and all surviving F2 pups were necropsied. Selected organs were weighed from 1 pup/sex/litter from F1 and F2 pups that were necropsied. Each surviving F0 and F1 parental animal received a complete detailed gross necropsy following the completion of weaning of the F1 and F2 pups, respectively; selected organs were weighed. Spermatogenic endpoints were recorded for all F0 and F1 males, and ovarian primordial follicle counts were recorded for all F0 and F1 females in the control and high-exposure groups and all F0 and F1 females suspected of reduced fertility. Designated tissues from all F0 and F1 parental animals were examined microscopically."}}, "note": "Several values for one entry are separate records, joined by “and”; a condition that tells them apart may be missing. Equal values may be shown once.", "data": [{"smiles": "CC1=CC(=O)CC(C)(C)[C@@]1(O)/C=C/C(C)=C\\C(=O)O", "note": "[S-ABA, (S)-(+)-abscisic acid]", "values": [{"measurement": "PROSTATE WEIGHT, mean", "setting": "rats [1]; group 2, 2,000 ppm in diet", "value": "MEAN = 0.731 GRAMS"}, {"measurement": "PROSTATE WEIGHT, mean", "setting": "rats [1]; group 3, 6,000 ppm in diet", "value": "MEAN = 0.908 GRAMS"}, {"measurement": "PROSTATE WEIGHT, mean", "setting": "rats [1]; group 4, 20,000 ppm in diet", "value": "MEAN = 0.827 GRAMS"}, {"measurement": "effect on triglyceride levels", "setting": "rats [1]; male and female rats, 2,000 ppm to 20,000 ppm", "value": "dose dependent decrease in triglyceride levels"}, {"measurement": "FEMALE fetuses at scheduled necropsy, MEAN", "setting": "[2]; group 2, 500 MG/KG/DAY", "value": 7.2}, {"measurement": "MALE fetuses at scheduled necropsy, MEAN", "setting": "[2]; group 2, 500 MG/KG/DAY", "value": 7.5}, {"measurement": "VIABLE FETUSES at scheduled necropsy, MEAN", "setting": "[2]; group 2, 500 MG/KG/DAY", "value": 14.7}, {"measurement": "FEMALE fetuses at scheduled necropsy, MEAN", "setting": "[2]; group 3, 750 MG/KG/DAY", "value": 6.6}, {"measurement": "MALE fetuses at scheduled necropsy, MEAN", "setting": "[2]; group 3, 750 MG/KG/DAY", "value": 7.5}, {"measurement": "VIABLE FETUSES at scheduled necropsy, MEAN", "setting": "[2]; group 3, 750 MG/KG/DAY", "value": 14.2}, {"measurement": "FEMALE fetuses at scheduled necropsy, MEAN", "setting": "[2]; group 4, 1,000 MG/KG/DAY", "value": 8.3}, {"measurement": "MALE fetuses at scheduled necropsy, MEAN", "setting": "[2]; group 4, 1,000 MG/KG/DAY", "value": 6.8}, {"measurement": "VIABLE FETUSES at scheduled necropsy, MEAN", "setting": "[2]; group 4, 1,000 MG/KG/DAY", "value": 15.1}, {"measurement": "ability to remove the adhesive bandage", "setting": "rats [3]; female rats in the treatment group", "value": "much better at removing the adhesive bandage"}, {"measurement": "Total No. of Removals (adhesive bandage), individual animals", "setting": "rats [3]; group 2F, females, 100 mg/kg/day dermal, 100 mg/kg/day", "value": "4 and 1"}, {"measurement": "Total No. of Removals (adhesive bandage), individual animals", "setting": "rats [3]; group 2M, males, 100 mg/kg/day dermal", "value": 1}, {"measurement": "Total No. of Removals (adhesive bandage), individual animals", "setting": "rats [3]; group 3F, females, 300 mg/kg/day dermal, 300 mg/kg/day", "value": "2 and 3"}, {"measurement": "Total No. of Removals (adhesive bandage), individual animals", "setting": "rats [3]; group 4F, females, 1000 mg/kg/day dermal, 1000 mg/kg/day", "value": "3 and 7 and 6"}, {"measurement": "Total No. of Removals (adhesive bandage), individual animals", "setting": "rats [3]; group 4M, males, 1000 mg/kg/day dermal", "value": 1}, {"measurement": "alertness", "setting": "rats [4]", "value": "heighten alertness"}, {"measurement": "SPERM PRODUCTION RATE, mean", "setting": "rats [5]; 10,000 PPM", "value": 10.3, "unit": "MILLIONS/GRAM/DAY"}, {"measurement": "Mean Live Offspring Born (per litter)", "setting": "rats [5]; 10,000 ppm", "value": 12.3}, {"measurement": "Offspring Born", "setting": "rats [5]; 10,000 ppm", "value": 322}, {"measurement": "Offspring FOUND DEAD", "setting": "rats [5]; 10,000 ppm", "value": 4}, {"measurement": "POSTNATAL SURVIVAL, BIRTH-4 (PRE-SELECT), mean", "setting": "rats [5]; 10,000 ppm", "value": 98.6, "unit": "% PER LITTER"}, {"measurement": "POSTNATAL SURVIVAL, POSTNATAL DAY 0 (RELATIVE TO # BORN), mean", "setting": "rats [5]; 10,000 ppm", "value": 99.7, "unit": "% PER LITTER"}, {"measurement": "POSTNATAL SURVIVAL, POSTNATAL DAY 0-1, mean", "setting": "rats [5]; 10,000 ppm", "value": 100.0, "unit": "% PER LITTER"}, {"measurement": "POSTNATAL SURVIVAL, POSTNATAL DAY 1-4 (PRE-SELECTION), mean", "setting": "rats [5]; 10,000 ppm", "value": 98.9, "unit": "% PER LITTER"}, {"measurement": "POSTNATAL SURVIVAL, POSTNATAL DAY 4 (POST-SELECT)-21, mean", "setting": "rats [5]; 10,000 ppm", "value": 99.5, "unit": "% PER LITTER"}, {"measurement": "POSTNATAL SURVIVAL, POSTNATAL DAY 4 (POST-SELECTION)-7, mean", "setting": "rats [5]; 10,000 ppm", "value": 99.5, "unit": "% PER LITTER"}, {"measurement": "POSTNATAL SURVIVAL, POSTNATAL DAY 7-14, mean", "setting": "rats [5]; 10,000 ppm", "value": 100.0, "unit": "% PER LITTER"}, {"measurement": "POSTNATAL SURVIVAL, POSTNATAL DAY 14-21, mean", "setting": "rats [5]; 10,000 ppm", "value": 100.0, "unit": "% PER LITTER"}, {"measurement": "OFFSPRING WEIGHT, mean", "setting": "rats [5]; 10,000 ppm, female, postnatal day 1", "value": 6.6, "unit": "grams"}, {"measurement": "OFFSPRING WEIGHT, mean", "setting": "rats [5]; 10,000 ppm, female, postnatal day 4", "value": 9.1, "unit": "grams"}, {"measurement": "OFFSPRING WEIGHT, mean", "setting": "rats [5]; 10,000 ppm, female, postnatal day 7", "value": 14.3, "unit": "grams"}, {"measurement": "OFFSPRING WEIGHT, mean", "setting": "rats [5]; 10,000 ppm, female, postnatal day 14", "value": 29.9, "unit": "grams"}, {"measurement": "OFFSPRING WEIGHT, mean", "setting": "rats [5]; 10,000 ppm, female, postnatal day 21", "value": 45.5, "unit": "grams"}, {"measurement": "OFFSPRING WEIGHT, mean", "setting": "rats [5]; 10,000 ppm, male, postnatal day 1", "value": 7.1, "unit": "grams"}, {"measurement": "OFFSPRING WEIGHT, mean", "setting": "rats [5]; 10,000 ppm, male, postnatal day 4", "value": 9.7, "unit": "grams"}, {"measurement": "OFFSPRING WEIGHT, mean", "setting": "rats [5]; 10,000 ppm, male, postnatal day 7", "value": 15.2, "unit": "grams"}, {"measurement": "OFFSPRING WEIGHT, mean", "setting": "rats [5]; 10,000 ppm, male, postnatal day 14", "value": 30.9, "unit": "grams"}, {"measurement": "OFFSPRING WEIGHT, mean", "setting": "rats [5]; 10,000 ppm, male, postnatal day 21", "value": 47.9, "unit": "grams"}, {"measurement": "offspring mortality", "setting": "rats [5]; 10,000 ppm, control 4.57%", "value": 1.24, "unit": "%"}, {"measurement": "SPERM PRODUCTION RATE, mean", "setting": "rats [5]; 15,000 PPM", "value": 10.7, "unit": "MILLIONS/GRAM/DAY"}, {"measurement": "Mean Live Offspring Born (per litter)", "setting": "rats [5]; 15,000 ppm", "value": 13.1}, {"measurement": "Offspring Born", "setting": "rats [5]; 15,000 ppm", "value": 375}, {"measurement": "Offspring FOUND DEAD", "setting": "rats [5]; 15,000 ppm", "value": 15}, {"measurement": "POSTNATAL SURVIVAL, BIRTH-4 (PRE-SELECT), mean", "setting": "rats [5]; 15,000 ppm", "value": 93.2, "unit": "% PER LITTER"}, {"measurement": "POSTNATAL SURVIVAL, POSTNATAL DAY 0 (RELATIVE TO # BORN), mean", "setting": "rats [5]; 15,000 ppm", "value": 96.1, "unit": "% PER LITTER"}, {"measurement": "POSTNATAL SURVIVAL, POSTNATAL DAY 0-1, mean", "setting": "rats [5]; 15,000 ppm", "value": 98.5, "unit": "% PER LITTER"}, {"measurement": "POSTNATAL SURVIVAL, POSTNATAL DAY 1-4 (PRE-SELECTION), mean", "setting": "rats [5]; 15,000 ppm", "value": 98.5, "unit": "% PER LITTER"}, {"measurement": "POSTNATAL SURVIVAL, POSTNATAL DAY 4 (POST-SELECT)-21, mean", "setting": "rats [5]; 15,000 ppm", "value": 98.2, "unit": "% PER LITTER"}, {"measurement": "POSTNATAL SURVIVAL, POSTNATAL DAY 4 (POST-SELECTION)-7, mean", "setting": "rats [5]; 15,000 ppm", "value": 99.6, "unit": "% PER LITTER"}]}]}
